≈ marks a conversion by molar mass, not a printed value.
system: Helicobacter pylori; test: Antimicrobial activity against Helicobacter pylori SS1 by NCCLS method; format: functional; settings: not given

Row | SMILES | MIC [µg/mL]
1 | CNC1=Nc2ncccc2C(c2ccco2)=NC1c1ccns1 (stereo not drawn) | 2 (≈ 6.18 µM)
2 | OC1CN(C2=Nc3ccccc3C(c3ccccc3)=NC2c2cccs2)C1 (stereo not drawn) | 0.25 (≈ 0.669 µM)
3 | CNC1=Nc2ncccc2C(c2ccco2)=NC1c1cc(C#CC(C)O)cs1 (stereo not drawn) | 4 (≈ 10.2 µM)
4 | CNC1=Nc2ncccc2C(c2ncco2)=NC1c1cccs1 (stereo not drawn) | 1 (≈ 3.09 µM)
5 | CNC1=Nc2ncccc2C(c2cc[nH]c2)=NC1c1cccs1 (stereo not drawn) | 0.4 (≈ 1.24 µM)
6 | CNC1=Nc2ccccc2C(c2ccccc2)=NC1c1cccs1 (stereo not drawn) | 0.5 (≈ 1.51 µM)
7 | CNC1=Nc2c(ccc[n+]2[O-])C(c2ccccc2)=NC1c1cccs1 (stereo not drawn) | 16 (≈ 45.9 µM)
8 | CCCNC1=Nc2ccccc2C(c2ccccc2)=NC1c1cccs1 (stereo not drawn) | 16 (≈ 44.5 µM)
9 | CNC1=Nc2ncccc2C(C2CCCC2)=NC1c1cccs1 (stereo not drawn) | 8 (≈ 24.7 µM)
10 | CNC1=Nc2ncccc2C(c2nccs2)=NC1c1cccs1 (stereo not drawn) | 1 (≈ 2.95 µM)
11 | CNC1=Nc2ncccc2C(c2ccco2)=NC1c1sccc1Cl (stereo not drawn) | 0.5 (≈ 1.4 µM)
12 | CNC1=Nc2ncccc2C(c2ccco2)=NC1c1ccco1 (stereo not drawn) | 8 (≈ 26.1 µM)

system: not listed separately; test: Distribution coefficient, log D of the compound; format: physicochemical; settings: octanol/water

Row | SMILES | logD
13 | CNC1=Nc2ccccc2C(c2ccccc2)=NC1c1cccs1 (stereo not drawn) | 4.1

molecular target: T1, Glutamate racemase (Enterococcus faecalis (strain ATCC 700802 / V583), UniProt Q836J0); test: Inhibition of Enterococcus faecalis MurI; settings: not given
T1 sequence (Q836J0 whole entry): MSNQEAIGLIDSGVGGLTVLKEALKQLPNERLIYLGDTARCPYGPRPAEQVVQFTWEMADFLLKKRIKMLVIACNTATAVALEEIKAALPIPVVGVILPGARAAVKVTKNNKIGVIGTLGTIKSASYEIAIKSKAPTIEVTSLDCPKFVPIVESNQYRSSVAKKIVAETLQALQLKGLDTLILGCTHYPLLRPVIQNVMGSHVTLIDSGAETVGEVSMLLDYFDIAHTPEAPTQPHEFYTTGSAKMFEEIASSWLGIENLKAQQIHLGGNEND

Row | SMILES | IC50 [µM]
14 | CNC1=Nc2ccccc2C(c2ccccc2)=NC1c1cccs1 (stereo not drawn) | > 400

system: not listed separately; test: Metabolic stability in mouse liver microsomes assessed as intrinsic clearance; format: ADME, Microsome; design: unit not given here; settings: not given

Row | SMILES | CL
15 | CNC1=Nc2ncccc2C(c2ccco2)=NC1c1ccns1 (stereo not drawn) | 27
16 | CNC1=Nc2ncccc2C(c2ccco2)=NC1c1cc(C#CC(C)O)cs1 (stereo not drawn) | 17
17 | CNC1=Nc2ncccc2C(c2ncco2)=NC1c1cccs1 (stereo not drawn) | 19
18 | CNC1=Nc2ncccc2C(c2cc[nH]c2)=NC1c1cccs1 (stereo not drawn) | 36
19 | CNC1=Nc2ccccc2C(c2ccccc2)=NC1c1cccs1 (stereo not drawn) | 97
20 | CNC1=Nc2c(ccc[n+]2[O-])C(c2ccccc2)=NC1c1cccs1 (stereo not drawn) | 41
21 | CCCNC1=Nc2ccccc2C(c2ccccc2)=NC1c1cccs1 (stereo not drawn) | > 100
22 | CNC1=Nc2ncccc2C(C2CCCC2)=NC1c1cccs1 (stereo not drawn) | > 100
23 | CNC1=Nc2ncccc2C(c2nccs2)=NC1c1cccs1 (stereo not drawn) | 33
24 | CNC1=Nc2ncccc2C(c2ccco2)=NC1c1sccc1Cl (stereo not drawn) | > 150
25 | CNC1=Nc2ncccc2C(c2ccco2)=NC1c1ccco1 (stereo not drawn) | 19

molecular target: T2, Glutamate racemase (Helicobacter pylori J99, UniProt Q9ZLT0); test: Inhibition of MurI in wild type Helicobacter pylori J99; settings: not given
T2 sequence (Q9ZLT0 whole entry): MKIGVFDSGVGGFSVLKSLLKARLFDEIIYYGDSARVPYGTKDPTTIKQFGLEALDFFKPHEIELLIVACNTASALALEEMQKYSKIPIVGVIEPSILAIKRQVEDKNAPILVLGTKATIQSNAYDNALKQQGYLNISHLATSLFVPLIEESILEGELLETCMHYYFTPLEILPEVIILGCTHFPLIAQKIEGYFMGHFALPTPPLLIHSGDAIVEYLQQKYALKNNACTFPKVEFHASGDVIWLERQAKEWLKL

Row | SMILES | IC50 [µM]
26 | CNC1=Nc2ncccc2C(c2ccco2)=NC1c1ccns1 (stereo not drawn) | 8.7
27 | CNC1=Nc2ncccc2C(c2ccco2)=NC1c1cc(C#CC(C)O)cs1 (stereo not drawn) | 4.9
28 | CNC1=Nc2ncccc2C(c2ncco2)=NC1c1cccs1 (stereo not drawn) | 7.7
29 | CNC1=Nc2ncccc2C(c2cc[nH]c2)=NC1c1cccs1 (stereo not drawn) | 0.6
30 | CNC1=Nc2ccccc2C(c2ccccc2)=NC1c1cccs1 (stereo not drawn) | 1.7
31 | CNC1=Nc2c(ccc[n+]2[O-])C(c2ccccc2)=NC1c1cccs1 (stereo not drawn) | 67
32 | CCCNC1=Nc2ccccc2C(c2ccccc2)=NC1c1cccs1 (stereo not drawn) | 4
33 | CNC1=Nc2ncccc2C(C2CCCC2)=NC1c1cccs1 (stereo not drawn) | 4.1
34 | CNC1=Nc2ncccc2C(c2nccs2)=NC1c1cccs1 (stereo not drawn) | 1.7
35 | CNC1=Nc2ncccc2C(c2ccco2)=NC1c1sccc1Cl (stereo not drawn) | 2.8
36 | CNC1=Nc2ncccc2C(c2ccco2)=NC1c1ccco1 (stereo not drawn) | 18.5

system: not listed separately; test: Inhibition of Staphylococcus aureus MurI; settings: not given

Row | SMILES | IC50 [µM]
37 | CNC1=Nc2ccccc2C(c2ccccc2)=NC1c1cccs1 (stereo not drawn) | > 400

system: Escherichia coli; test: Antimicrobial activity against Escherichia coli; format: functional; settings: not given

Row | SMILES | MIC [µg/mL]
38 | CNC1=Nc2ccccc2C(c2ccccc2)=NC1c1cccs1 (stereo not drawn) | > 64

system: not listed separately; test: Inhibition of Escherichia coli MurI; settings: not given

Row | SMILES | IC50 [µM]
39 | CNC1=Nc2ccccc2C(c2ccccc2)=NC1c1cccs1 (stereo not drawn) | > 400

system: not listed separately; test: Protein binding in mouse plasma; format: ADME, cell-free; settings: read-out: PPB (converted)

Row | SMILES | fraction unbound
40 | CNC1=Nc2ncccc2C(c2ccco2)=NC1c1ccns1 (stereo not drawn) | 0.264
41 | OC1CN(C2=Nc3ccccc3C(c3ccccc3)=NC2c2cccs2)C1 (stereo not drawn) | 0.01
42 | CNC1=Nc2ncccc2C(c2ccco2)=NC1c1cc(C#CC(C)O)cs1 (stereo not drawn) | 0.091
43 | CNC1=Nc2ncccc2C(c2ncco2)=NC1c1cccs1 (stereo not drawn) | 0.257
44 | CNC1=Nc2ncccc2C(c2cc[nH]c2)=NC1c1cccs1 (stereo not drawn) | 0.246
45 | CNC1=Nc2ccccc2C(c2ccccc2)=NC1c1cccs1 (stereo not drawn) | 0.003
46 | CNC1=Nc2c(ccc[n+]2[O-])C(c2ccccc2)=NC1c1cccs1 (stereo not drawn) | 0.353
47 | CNC1=Nc2ncccc2C(C2CCCC2)=NC1c1cccs1 (stereo not drawn) | 0.048
48 | CNC1=Nc2ncccc2C(c2nccs2)=NC1c1cccs1 (stereo not drawn) | 0.17
49 | CNC1=Nc2ncccc2C(c2ccco2)=NC1c1sccc1Cl (stereo not drawn) | 0.013
50 | CNC1=Nc2ncccc2C(c2ccco2)=NC1c1ccco1 (stereo not drawn) | 0.193

system: Staphylococcus aureus; test: Antimicrobial activity against Staphylococcus aureus; format: functional; settings: not given

Row | SMILES | MIC [µg/mL]
51 | CNC1=Nc2ccccc2C(c2ccccc2)=NC1c1cccs1 (stereo not drawn) | > 64

system: Enterococcus faecalis; test: Antimicrobial activity against Enterococcus faecalis; format: functional; settings: not given

Row | SMILES | MIC [µg/mL]
52 | CNC1=Nc2ccccc2C(c2ccccc2)=NC1c1cccs1 (stereo not drawn) | > 64

system: Liver microsomes; test: Metabolic stability in human liver microsomes assessed as intrinsic clearance; format: ADME, Microsome; design: unit not given here; settings: not given

Row | SMILES | CL
53 | CNC1=Nc2ncccc2C(c2ccco2)=NC1c1ccns1 (stereo not drawn) | 26
54 | CNC1=Nc2ncccc2C(c2ccco2)=NC1c1cc(C#CC(C)O)cs1 (stereo not drawn) | 7
55 | CNC1=Nc2ncccc2C(c2ncco2)=NC1c1cccs1 (stereo not drawn) | < 5
56 | CNC1=Nc2ncccc2C(c2cc[nH]c2)=NC1c1cccs1 (stereo not drawn) | 19
57 | CNC1=Nc2ccccc2C(c2ccccc2)=NC1c1cccs1 (stereo not drawn) | 43
58 | CNC1=Nc2c(ccc[n+]2[O-])C(c2ccccc2)=NC1c1cccs1 (stereo not drawn) | < 14
59 | CCCNC1=Nc2ccccc2C(c2ccccc2)=NC1c1cccs1 (stereo not drawn) | 30
60 | CNC1=Nc2ncccc2C(C2CCCC2)=NC1c1cccs1 (stereo not drawn) | 59
61 | CNC1=Nc2ncccc2C(c2nccs2)=NC1c1cccs1 (stereo not drawn) | < 14
62 | CNC1=Nc2ncccc2C(c2ccco2)=NC1c1sccc1Cl (stereo not drawn) | 74
63 | CNC1=Nc2ncccc2C(c2ccco2)=NC1c1ccco1 (stereo not drawn) | 9

Source: ChEMBL document CHEMBL1143274, “Potent and selective inhibitors of Helicobacter pylori glutamate racemase (MurI): pyridodiazepine amines” (Bioorg Med Chem Lett, 2009)
